Results from patent publication US20200038399A1, “FORMULATIONS, METHODS, KIT, AND DOSAGE FORMS FOR TREATING BACTERIAL INFECTION” (Motif BioSciences Inc., priority 2016, published 2020).
Several values for one entry are separate records, joined by “and”; a condition that tells them apart may be missing. Equal entries are not always repeated.

Experiments:
[1] = in vivo; cited from earlier work
Pneumocystis jirovecii [2] = test: in vitro anti-Pneumocystis susceptibility, broth microdilution in axenic culture; conditions: 4 days
Experimental: Iclaprim was synthesized at Arpida Ltd. (Münchenstein, Switzerland). TMP and SMX were obtained from Sigma, Spain. […] TMP and SMX solutions were mixed appropriately to obtain a final 1:5-combination. For evaluating the in vitro anti-Pneumocystis activity, the drug stock solutions were diluted in Dulbecco's Modified Eagle's Medium (DMEM, Bio-Whittaker) supplemented with 10% heat-inactivated fetal calf serum (FCS, GIBCO-BRL) to produce the required drug concentrations. […] Compound solutions were prepared just before use.
Corticosteroid-treated conventional laboratory rats were used as an animal model to obtain P. jirovecii organisms. Ten-week-old female Wistar rats (Harlan, France) were immunosuppressed for 3 weeks with dexamethasone (Fortecortin®, Merck) administered in the drinking water (2 mg/liter). Rats were then inoculated with 20×10^6 of cryopreserved parasites using a non-surgical endotracheal method. Dexamethasone treatment was maintained until the end of the experiment. Six to eight weeks' post-inoculation (p.i.) rats were highly infected, without secondary fungal or bacterial infection. Animals were allowed sterile standard food (UAR, France) and water ad libitum.
Six to eight weeks following inoculation, rats were sacrificed and parasite extraction was performed. Briefly, parasites were extracted in Dulbecco's Modified Eagle's Medium (DMEM; Bio-Whittaker) by agitation of lung pieces with a magnetic stirrer. The resulting homogenate was poured successively through gauze, 250 and 63 micron stainless steels filters. After centrifugation, the pellet was resuspended in a hemolytic buffered solution. […] Blood and Sabouraud dextrose agar (Difco) media were inoculated with purified parasites to check for the presence of eventual contaminating pathogens.
In vitro pharmacodynamic properties were determined using the Hill equation (Emax sigmoid model; see below).
In vitro susceptibility studies were performed using the broth microdilution technique. […] All the experiments were carried out in 24-well plates with a final volume of 2 ml of DMEM supplemented with 10% FCS containing a final inoculum of 0.5×10^6 organisms per ml. Plates were then incubated for 4 days in an atmosphere of 5% C0^2 at 37° C. One free-drug control was included in each assay. Parasite quantitation was performed on homogenate smears as described above. All susceptibility assays were set up in triplicate.
Analysis of results. […] Once all the differences between drug-treated and untreated wells were calculated, the concentration-effect relationship was established by using the Hill equation:
The parameters of this pharmacodynamic model were calculated by nonlinear least-squares regression techniques using a commercial software (Sigma Plot).

Pneumocystis jirovecii [3] = test: in vivo Pneumocystis pneumonia model, corticosteroid-treated rats; conditions: once a day for 10 days; for Mean % + SD (inhibition of cysts, TBO) / Mean % + SD (inhibition of total parasites, Giemsa): group mean; for Total cysts (TBO) / Total parasites (Giemsa): rat lung; for Total cysts (TBO) / Total parasites (Giemsa) / % of inhibition vs Control (total parasites, Giemsa) / % of inhibition vs control (cysts, TBO): single rat
Experimental: Compound solutions were prepared just before use.
The drugs were given once a day for 10 consecutive days. The final concentration of DMSO in diluted drug solutions was between 1.5 and 15%. Control animals were dosed with sterile water with 15% of DMSO. At the end of the experiment, therapeutic efficacy was assessed by counting P. jirovecii in lung homogenates and comparing the counts with those of the untreated controls. Twenty-four hours after the end of the treatment, animals were sacrificed and the lung homogenized in a Stomacher-400 blender as previously described (European Concerted Action on Pneumocystis Research. Parasitology Today 12: 245-9, 1996, the entire disclosure of which is herein incorporated by reference). Parasite quantitation was performed on air-dried smears stained with toluidine blue 0 (cystic forms) or RAL-555 stains (vegetative, precystic and cystic forms).

S. aureus 101 = test: MIC determination; format: cell-based, Staphylococcus aureus; conditions: Staphylococcus aureus, 101, 18 h; read-out: Minimum inhibitory concentrations (MIC)
Method in brief: (§1)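 Broth microdilution MICs: H. influenzae in HTM (Mueller-Hinton broth, yeast extract, NAD, hematin), M. catarrhalis in Brain Heart Infusion, others in cation-adjusted Mueller-Hinton broth.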

[4] = tested on: Staphylococcus aureus AH 1246; test: mouse subcutaneous abscess model; format: in vivo; conditions: mice; 40 mg/Kg (alone); PO @ 8, 24, 32, 48, 56 hours post infection
Experimental: Wild type S. aureus ATCC 25923 and its TK-deficient mutant AH 1246 were supplied by Arpida AG, Reinach, Switzerland.
S. aureus strains were grown on TSA plates at 37° C. in 5% CO2. The bacteria concentration was adjusted by re-suspending a portion of the overnight growth of the plate in saline and adjusting a 1:10 dilution of the suspension to achieve an OD625 of 0.1. The adjusted suspension was diluted 1:2 in prepared Cytodex beads (1 gram/50 mL PBS) to a final concentration of 5.0×10^5 CFU/mL. Bacterial enumeration was performed to determine actual concentration of the bacterial inoculum.
CD-1 female mice (weighing 18 to 22 grams) from Charles River Laboratories (Wilmington, Mass.) were acclimated for 5 days prior to start of study. All studies were performed under approved IACUC protocols and conform to OLAW standards. Animals had free access to food and water throughout the study. Animals were provided enrichment and housed 5 per cage.
Mice were injected SC with 0.2 mL of the bacterial-Cytodex inoculum. […] The mice were then euthanized and the abscesses aseptically removed, homogenized, serially diluted and plated for bacterial enumeration.

[5] = tested on: Klebsiella pneumoniae ATCC 33495; test: MIC determination; format: cell-based; conditions: Klebsiella pneumoniae, ATCC33495; K. pneumonia 33495; 18 hours at 37° C.; read-out: Minimum inhibitory concentrations (MIC)
Method in brief: as §1

[6] = tested on: Staphylococcus aureus ATCC 25923; test: MIC determination; format: cell-based; conditions: Staphylococcus aureus, ATCC25923; S. aureus 25923; 18 hours at 37° C.; read-out: Minimum inhibitory concentrations (MIC)
Method in brief: as §1

[7] = tested on: Moraxella catarrhalis RA 21; test: MIC determination; format: cell-based; conditions: Moraxella catarrhalis, RA21; M. catarrhalis RA 21; 18 hours at 37° C., 5% CO2; read-out: Minimum inhibitory concentrations (MIC)
Method in brief: as §1

[8] = tested on: Streptococcus pneumoniae ATCC 49619; test: MIC determination; format: cell-based; conditions: Streptococcus pneumoniae, ATCC49619; S. pneumoniae 49619; 18 hours at 37° C., 5% CO2; read-out: Minimum inhibitory concentrations (MIC)
[9] = tested on: Haemophilus influenzae ATCC 49766; test: MIC determination; format: cell-based; conditions: Haemophilus influenzae, ATCC49766; H. Influenza 49766; 18 hours at 37° C., 5% CO2; read-out: Minimum inhibitory concentrations (MIC)
Method in brief: as §1

S. pneumoniae 1/1 = test: MIC determination; format: cell-based, Streptococcus pneumoniae; conditions: Streptococcus pneumoniae; S. pneumoniae 1/1; 18 hours at 37° C., 5% CO2; read-out: Minimum inhibitory concentrations (MIC)
[10] = 5 mg/kg/d oral, listed as AR-100, 5 mg/kg/day
[11] = 25 mg/kg/d oral, listed as AR-100, 25 mg/kg/day
[12] = 50 mg/kg/d oral, listed as AR-100, 50 mg/kg/day

## COc1cc(Cc2cnc(N)nc2N)c2c(c1OC)OC(C1CC1)C=C2 (racemic) [Iclaprim, 5-[(2RS)-2-cyclopropyl-7,8-dimethoxy-2Hchromen-5-ylmethyl] pyrimidine-2,4-diamine]
[1]
  t½ (plasma half-life): about 2.9 hours
Pneumocystis jirovecii [2]; Iclaprim 5 μg/ml
  % inhibition vs control: 5.8 ± 2.6%
  Log (total parasites): 6.2
  Total parasites (× 10^6): 1.5 ± 0.04 × 10^6
Pneumocystis jirovecii [2]; Iclaprim 11 μg/ml
  % inhibition vs control: 19.3 ± 7.4%
  Log (total parasites): 6.1
  Total parasites (× 10^6): 1.3 ± 0.1 × 10^6
Pneumocystis jirovecii [2]; Iclaprim 18 μg/ml
  % inhibition vs control: 44.0 ± 6.3%
  Log (total parasites): 5.9
  Total parasites (× 10^6): 0.9 ± 0.1 × 10^6
Pneumocystis jirovecii [2]; Iclaprim 24 μg/ml
  % inhibition vs control: 58.1 ± 3.1%
  Log (total parasites): 5.8
  Total parasites (× 10^6): 0.7 ± 0.05 × 10^6
Pneumocystis jirovecii [2]; Iclaprim 31 μg/ml
  % inhibition vs control: 79.3 ± 4.8%
  Log (total parasites): 5.5
  Total parasites (× 10^6): 0.3 ± 0.08 × 10^6
Pneumocystis jirovecii [2]; Iclaprim 37 μg/ml
  % inhibition vs control: 92.3 ± 1.9%
  Log (total parasites): 5.1
  Total parasites (× 10^6): 0.1 ± 0.03 × 10^6
Pneumocystis jirovecii [2]; Iclaprim 44 μg/ml
  % inhibition vs control: 98.3 ± 0.72%
  Log (total parasites): 4.4
  Total parasites (× 10^6): 0.03 ± 0.01 × 10^6
Pneumocystis jirovecii [2]; Iclaprim 50 μg/ml
  % inhibition vs control: 99.7 ± 0.04%
  Log (total parasites): 3.7
  Total parasites (× 10^6): 0.01 ± 0.001 × 10^6
Pneumocystis jirovecii [2]; Iclaprim 80 μg/ml
  % inhibition vs control: 99.8 ± 0.12%
  Log (total parasites): 3.4
  Total parasites (× 10^6): 0.003 ± 0.002 × 10^6
Pneumocystis jirovecii [2]; Iclaprim 100 μg/ml
  % inhibition vs control: 99.9 ± 0.07%
  Log (total parasites): 3.3
  Total parasites (× 10^6): 0.002 ± 0.001 × 10^6
Pneumocystis jirovecii [3]; 5 mg/kg/d oral
  Mean % + SD (inhibition of cysts, TBO): 69.4 ± 8.4%
  Mean % + SD (inhibition of total parasites, Giemsa): 66.9 ± 7.8%
Pneumocystis jirovecii [3]; 25 mg/kg/d oral
  Mean % + SD (inhibition of cysts, TBO): 72.0 ± 30.0%
  Mean % + SD (inhibition of total parasites, Giemsa): 79.1 ± 20.9%
Pneumocystis jirovecii [3]; 50 mg/kg/d oral
  Mean % + SD (inhibition of cysts, TBO): 71.7 ± 14.5%
  Mean % + SD (inhibition of total parasites, Giemsa): 76.5 ± 13.3%
Pneumocystis jirovecii [3]; [10]
  Total cysts (TBO): 3.85.10^+7 and 2.60.10^+7 and 4.61.10^+7
  Total parasites (Giemsa): 9.13.10^+8 and 6.56.10^+8
  % of inhibition vs Control (total parasites, Giemsa): 58.1% and 69.9% and 72.8%
  % of inhibition vs control (cysts, TBO): 68.0% and 78.4% and 61.7%
Pneumocystis jirovecii [3]; [11]
  Total cysts (TBO): 1.72.10^+7 and 8.94.10^+6 and 9.11.10^+7
  Total parasites (Giemsa): 3.94.10^+8 and 3.41.10^+7 and 9.38.10^+8
  % of inhibition vs Control (total parasites, Giemsa): 81.9% and 98.4% and 90.8%
  % of inhibition vs control (cysts, TBO): 85.7% and 92.6% and 37.7%
Pneumocystis jirovecii [3]; [12]
  Total cysts (TBO): 5.17.10^+7 and 3.38.10^+7 and 5.23.10^+7
  Total parasites (Giemsa): 5.68.10^+8 and 7.71.10^+8 and 2.00.10^+8
  % of inhibition vs Control (total parasites, Giemsa): 74.0% and 64.7% and 90.8%
  % of inhibition vs control (cysts, TBO): 57.1% and 71.9% and 86.1%
S. aureus 101
  MIC: 1 µg/mL
[4]
  Change in average log10 CFU/gr of Abscess from Controls: −0.79 log10 CFU/gr
[5]
  MIC: 8 µg/mL
[6]
  MIC: 0.063 µg/mL
[7]
  MIC: 2 µg/mL
[8]
  MIC: 0.125 µg/mL
[9]
  MIC: 0.25 µg/mL
S. pneumoniae 1/1
  MIC: 1 µg/mL
